In patent publication US8334316B2, “Substituted organosulfur compounds and methods of using thereof” (ACEA Biosciences, Inc., priority 2004, dated 2012):
“Also recorded” adds a separate entry of the source.

Tests used:
[1] = system: MDA-MB231 (M231, human breast cancer cell line); test: MTT assay IC50 (48 h), MDA-MB231; format: cell-based; settings: MDA-MB-231, M231, 48 hours
Procedure: In another assay format, a test compound is assayed for its cytotoxicity and/or cytostatic effect on certain cancer cell types, using endpoint assay methods. Cells in the NCI cancer cell panel may be used. Cells after a pre-incubation for certain length of time (for example, 8 hrs or 24 hrs) are incubated with a test compound at serially-diluted concentrations (for example, five 10-fold dilutions) for 24 hrs and/or 48 hrs, and/or other specific length of time. The dose dependent cytotoxicity and/or cytostatic effects of test compounds can then be tested and evaluated using the 3-(4,5-dimethylthiazol-2-yl)-2,5-diphenyltetrazolium bromide (MTT) assay method, as described by, for example, Boyd (In Principle of Practice of Oncology, Devita, J. T., Hellman, S. and Rosenberg S. A. (Eds), 1989, Vol, 3, PPO Update, No. 10).
The anticancer potency of DBTS and its derivatives were tested in 8 different types of human cancer cell lines using the RT-CES system and MTT assay. The 8 cancer cell lines were HT1080 (the human fibrosarcoma cell line), H460 (human non small cell lung cancer cell line), OVCAR4 (the human ovarian cancer cell line), MCF7 (human breast cancer cell line) MDA-MB231 (M231, the human breast cancer cell line) A2780 (the human […] cancer cell line) Jurkat (the human T cell leukemia cell line). The test DBTS derivatives include ACEA100107, ACEA100108, ACEA100109, ACEA100111, ACEA100115, ACEA100116, ACEA100117, ACEA100118, ACEA100119, and ACEA100120.
For the MTT assay, the cells were seeded into the regular 96× well plates at the cell seeding density ranging from 5000 cells/well to 15,000 cells/well. The cells were incubated at 5% CO2 and 37° C. for overnight. The derivatives were serially diluted and added to the cells. The treatment was terminated after 48 hours of incubation by adding MTT staining reagent. After 4 hours, the staining was stopped by the stop buffer and then the calorimetric measurement was carried out on a microtiter plate reader at dual wave length, 650 nm and 550 nm.

[2] = system: HepG2 cells (human hepatosarcoma); test: RT-CES system cell proliferation/cytotoxicity, HepG2; format: cell-based; settings: for IC50: Homo sapiens, HepG2, time point of maximum inhibition
Description: The RT-CES system comprises three components, an electronic sensor analyzer, a device station and 16× or 96× microtiter plate devices. Microelectrode sensor array was fabricated on glass slides with lithographical microfabrication methods and the electrode-containing slides are assembled to plastic trays to form electrode-containing wells. Each 16× (or 96×) microtiter plate device used in RT-CES system comprises up to 16 (or 96) such electrode-containing wells. The device station receives the 16× or 96× microtiter plate devices and is capable of electronically switching any one of the wells to the sensor analyzer for impedance measurement. In operation, the devices with cells cultured in the wells are placed into a device station that is located inside an incubator. Electrical cables connect the device station to the sensor analyzer. Under the RT-CES software control, the sensor analyzer can automatically select wells to be measured and continuously conduct impedance measurements. The impedance data from the analyzer is transferred to a computer, analyzed and processed by the integrated software.
To quantify cell status based on the measured cell-electrode impedance, a parameter termed Cell Index is derived, according to
[formula] where Rb(f) and Rcell(f) are the frequency dependent electrode resistances (a component of impedance) without cells or with cell present, respectively. N is the number of the frequency points at which the impedance is measured. Thus, Cell Index is a quantitative measure of the status of the cells in an electrode-containing well. Under the same physiological conditions, more cells attached on to the electrodes leads to larger Rcell(f) value, leading to a larger value for Cell Index. Furthermore, for the same number of cells present in the well, a change in the cell status such as morphology will lead to a change in the Cell Index. For example, an increase in cell adhesion or cell spreading leads to larger cell-electrode contact area which will lead to an increase in Rcell(f) and thus a larger value for Cell Index. The Cell Index may also be calculated using a formula different from the one described here. Other methods for calculating the Cell Index based on impedance measurement can be found in PCT application number PCT/US04/37696, fined on Nov. 12, 2004, PCT application number PCT/US05/04481, filed on Feb. 9, 2005, U.S. patent application Ser. No. 10/987,732, filed on Nov. 12, 2004, and U.S. patent application Ser. No. 11/055,639, filed on Feb. 9, 2005.
Different types of human cancer cells, including NCI-H460 (non-small cell lung cancer cells), MV522 SW (non-small cell lung cancer cells), MCF7 (breast cancer cells), A549 (non-small cell lung cancer cells), PC3 (prostate cancer cells), A431 (epidermoid cancer cells), HT1080 (fibrosarcoma cells), MDA.MB2321 (breast cancer cells), HT29 (colon cancer cells), HCC2998 (colon cancer cells), OVCAR4 (ovarian cancer cells), A2780 (ovarian cancer cells) and HepG2 (human hepatosarcoma) with different numbers (4000 to 20,000 per well) were seeded into 16× or 96× microtiter device and monitored by RT-CES™ system. The cells were allowed to grow for about 24 hours prior to the addition of dibenzyl trisulfide dissolved in DMSO solution (final DMSO concentration: 0.2%; final dibenzyl trisulfide concentration: between 1.5625 μM and 100 μM). The cell-electrode impedance was continuously measured and the corresponding, time dependent cell-index values were derived and recorded.
HepG2 cells (human hepatosarcoma cells) were seeded into wells of 16× or 96× microtiter plate devices (electronic plates, i.e., the plates comprise microelectrode sensor arrays in the wells of the plate) with an initial seeding density of 15,000 cells per well and were pre-incubated in incubator under standard cell culture conditions for about 22 hrs. Dibenzyl trisulfide solution in DMSO was added into wells following the incubation period. […]

Row | IC50 [1] | Compound | IC50 [2] | Effect on HepG2 cell proliferation (cell index) ([2]; within the exposing dose range (1.5625-100 μM))
1 | 3.1 µM | Clc1ccccc1CSSSCc1ccccc1Cl [ACEA100115, Di(o-chlorobenzyl)trisulfide] | > 50 µM | –
2 | 0.65 µM | Cc1cccc(CSSSCc2cccc(C)c2)c1 [ACEA100116, di(m-methylbenzyl)trisulfide] | > 50 µM | –
3 | 14.9 µM | FC(F)(F)c1cccc(CSSSCc2cccc(C(F)(F)F)c2)c1 [ACEA100117, Di(m-trifluoromethylbenzyl)trisulfide] | > 50 µM | –
4 | 1.2 µM | Clc1ccc(CSSSCc2ccc(Cl)cc2)cc1 [ACEA100118, Di(p-chlorobenzyl)trisulfide] | > 50 µM | –

Row | Compound | IC50 [1] | IC50 [2] | Effect on HepG2 cell proliferation (cell index) ([2]; within the exposing dose range (1.5625-100 μM))
5 | Fc1ccc(CSSSCc2ccc(F)cc2)cc1 [ACEA100108, Di(p-fluorobenzyl)trisulfide] | 4.4 µM | > 50 µM | –
6 | c1ccc(CSSSCc2ccccc2)cc1 [DBTS, Dibenzyl trisulfide] | 2.4 µM | > 50 µM | did not demonstrate anti-proliferation ability; also recorded: exhibits no inhibition effect on HepG2 cell proliferation and no cytotoxic effect
